Laboratory results reported in patent US10717757B2, “Ketolides having antibacterial activity” (BIOPHARMATI SA, priority 2016, dated 2020).
≈ marks a conversion by molar mass, not a printed value. Where two headings read alike, the source gives them in different places.

Experiments:
[1] = tested on: S. pneumoniae AUCC479, macrolide & penicillin sensitive; experiment: Minimum inhibitory concentration (MIC), broth microdilution, AUCC479; assay type: cell-based, Streptococcus pneumoniae
Protocol: (§1) Protocols for Determining Minimum Inhibitory Concentration (MIC) of Test Compounds Against Streptococcus Pneumoniae Strains
(§2) The test strains are revived from frozen stock on blood agar plates and incubated at 35±2° C. for 18-20 hours in 5% CO2. Colonies are directly suspended from an overnight grown agar culture in CAMHB/saline and optical density adjusted to 0.5 McFarland turbidity standard (1-2×10^8 cfu/mL). Adjusted cultures are further diluted 1:100 using CAMHB such that after inoculation each well finally contains ˜5×10^5 cfu/mL. For broth dilution testing of Streptococcus species, CAMHB is supplemented with 2.5-5% v/v LHB. Colony counts of inoculum suspension is estimated by ten-fold serial dilutions and plating each dilution on agar plate. After incubation, the plates are observed for growth and microbial counts determined.
(§3) Compounds are weighed and dissolved in water/DMSO/other solvent to yield 1 mg/mL stock solution. Serial two-fold dilutions of the test compounds and reference antibiotics are prepared. 50 μL of the diluted drug solutions are dispensed in wells of microtiter trays (96 well).
(§4) To each of the wells of the microtiter tray, 50 μL of the diluted organism are inoculated to obtain a final inoculum density of ˜5×10^5 cfu/mL. Broth control, compound control and organism control wells are set up.
(§5) MIC testing are done in duplicates
(§6) MIC is defined as the lowest concentration of an antimicrobial agent that prevents visible growth of a microorganism in broth dilution susceptibility test.
(§7) After incubation period, growth of organism in the wells are detected by unaided eye facilitated by a viewing device. The amount of growth in the drug-containing wells are compared with the amount of growth in the organism-control wells.

[2] = tested on: S. pneumoniae AUCC483, macrolide resistant & penicillin sensitive; experiment: Minimum inhibitory concentration (MIC), broth microdilution, AUCC483; assay type: cell-based, Streptococcus pneumoniae
Protocol: as §1, §2, §3, §4, §5, §6, §7

[3] = tested on: S. pneumoniae ATCC 49619 (CLSI QC strain); experiment: Minimum inhibitory concentration (MIC), broth microdilution, QC strain; assay type: cell-based, Streptococcus pneumoniae; settings: MIC in duplicates
Protocol: as §1, §2, §3, §4, §5, §6, §7

[4] = tested on: S. pneumoniae AUCC488, macrolide & penicillin resistant; experiment: Minimum inhibitory concentration (MIC), broth microdilution, AUCC488; assay type: cell-based, Streptococcus pneumoniae
Protocol: as §1, §2, §3, §4, §5, §6, §7

[5] = tested on: S. pneumoniae AUCC489, macrolide & penicillin resistant; experiment: Minimum inhibitory concentration (MIC), broth microdilution, AUCC489; assay type: cell-based, Streptococcus pneumoniae
Protocol: as §1, §2, §3, §4, §5, §6, §7

[6] = molecular target: CYP3A4 (Homo sapiens, UniProt P08684); experiment: Cytochrome P4503A4 inhibition assay, human liver microsomes, LC-MS/MS probe substrate method; settings: for IC50: human liver microsomes 0.1 mg/mL, 10 min; for CYP3A4 inhibition in comparison with solithromycin and ketoconazole: summary of Table 1
CYP3A4, sequence (P08684 whole entry): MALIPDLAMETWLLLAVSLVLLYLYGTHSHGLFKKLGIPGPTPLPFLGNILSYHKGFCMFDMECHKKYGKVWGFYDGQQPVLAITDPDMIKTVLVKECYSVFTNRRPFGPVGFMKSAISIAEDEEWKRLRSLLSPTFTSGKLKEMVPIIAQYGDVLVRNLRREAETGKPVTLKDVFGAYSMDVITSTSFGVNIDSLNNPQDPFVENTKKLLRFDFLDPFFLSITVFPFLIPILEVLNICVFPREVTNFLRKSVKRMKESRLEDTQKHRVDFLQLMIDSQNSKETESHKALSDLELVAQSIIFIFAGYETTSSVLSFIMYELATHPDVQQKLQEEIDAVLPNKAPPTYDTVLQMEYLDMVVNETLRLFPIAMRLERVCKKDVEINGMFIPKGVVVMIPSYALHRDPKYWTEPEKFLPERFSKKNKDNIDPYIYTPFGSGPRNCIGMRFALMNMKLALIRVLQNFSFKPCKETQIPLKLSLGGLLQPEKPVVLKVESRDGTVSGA
Protocol: Cytochrome P4503A4 Inhibition Assay for Determining IC50
The potential of the compound to inhibit CYP 3A4 was tested by the LC-MS/MS based probe substrate method using human liver microsomes. Midazolam or testosterone, which are metabolized to hydroxymidazolam or hydroxytestosterone by CYP 3A4, were the probe substrates used. […] NADPH was added as the cofactor. […] After incubation for ten minutes, the amount of 1-hydroxymidazolam or 6β-hydroxyltestosterone formed was determined by LC-MS/MS method as a measure of enzyme activity. Percent inhibition of enzyme activity was calculated based on the amount of metabolites (1-hydroxymidazolam or 6β-hydroxyltestosterone) formed for each sample relative to the basal control and plotted in a curve versus the compound concentration to obtain the IC50.

[7] = read-out: IC50 CYP3A4 (midazolam), 5 μM midazolam
[8] = read-out: IC50 CYP3A4 (testosterone), 50 μM testosterone

Compound	MIC Strep. Pneumoniae AUCC 479 penS, macS [1]	MIC Strep. Pneumoniae AUCC 483 penS, macR cMLS [2]	MIC Strep. Pneumoniae ATCC49619 QC strain [3]	MIC Strep. Pneumoniae AUCC 488 penR, macR M or iMLS [4]	MIC Strep. Pneumoniae AUCC 489 penR, macR cMLS [5]	IC50 [6, 7]	CYP3A4 inhibition in comparison with solithromycin and ketoconazole [6]	IC50 [6, 8]	MIC ([3]; Streptococcus pneumoniae, ATCC49619 QC strain, read-out: MIC Strep. Pneumoniae ATCC49619 QC strain)
CC[C@H]1OC(=O)[C@H](C)C(=O)[C@H](C)[C@@H](O[C@@H]2O[C@H](C)C[C@H](N(C)C)[C@H]2O)[C@](C)(OC/C=C/c2cnc3ccccc3c2)C[C@@H](C)C(=O)[C@H](C)[C@H]2N(CCOC)C(=O)O[C@]12C [Compound 13E, (3aS,4R,7R,9R,10R,11R,13R,15R,15aR)-10-{[(2S,3R,4S,6R)-4-(dimethylamino)-3-hydroxy-6-methyloxan-2-yl]oxy}-4-ethyl-1-(2-methoxyethyl)-3a,7,9,11,13,15-hexamethyl-11-{[(2E)-3-(quinolin-3-yl)prop-2-en-1-yl]oxy}-tetradecahydro-1H-oxacyclotetradeca[4,3-d][1,3]oxazole-2,6,8,14-tetrone]	0.03 to 0.06 µg/mL	>4 µg/mL	0.06 to 0.12 µg/mL	0.25 to 0.5 µg/mL	>4 µg/mL	–	–	–	–
CC[C@H]1OC(=O)[C@H](C)C(=O)[C@H](C)[C@@H](O[C@@H]2O[C@H](C)C[C@H](N(C)C)[C@H]2O)[C@](C)(OC/C=C/c2cnc3ccccc3c2)C[C@@H](C)C(=O)[C@H](C)[C@H]2N(CC#N)C(=O)O[C@]12C [Compound 13H, 2-[(3aS,4R,7R,9R,10R,11R,13R,15R,15aR)-10-{[(2S,3R,4S,6R)-4-(dimethylamino)-3-hydroxy-6-methyloxan-2-yl]oxy}-4-ethyl-3a,7,9,11,13,15-hexamethyl-2,6,8,14-tetraoxo-11-{[(2E)-3-(quinolin-3-yl)prop-2-en-1-yl]oxy}-tetradecahydro-1H-oxacyclotetradeca[4,3-d][1,3]oxazol-1-yl]acetonitrile]	0.008 to 0.015 µg/mL	2 to 4 µg/mL	0.03 to 0.06 µg/mL	0.25 to 1 µg/mL	0.25 to 1 µg/mL	1.9 µM	lower IC50 inhibition of CYP3A4 inhibition	–	–
CC[C@H]1OC(=O)[C@H](C)C(=O)[C@H](C)[C@@H](O[C@@H]2O[C@H](C)C[C@H](N(C)C)[C@H]2O)[C@](C)(OC/C=C/c2cnc3ccccc3c2)C[C@@H](C)C(=O)[C@H](C)[C@H]2N(CC3CCN(C)CC3)C(=O)O[C@]12C [Compound 13L, (3aS,4R,7R,9R,10R,11R,13R,15R,15aR)-10-{[(2S,3R,4S,6R)-4-(dimethylamino)-3-hydroxy-6-methyloxan-2-yl]oxy}-4-ethyl-3a,7,9,11,13,15-hexamethyl-1-[(1-methylpiperidin-4-yl)methyl]-11-{[(2E)-3-(quinolin-3-yl)prop-2-en-1-yl]oxy}-tetradecahydro-1H-oxacyclotetradeca[4,3-d][1,3]oxazole-2,6,8,14-tetrone]	0.03 µg/mL (≈ 0.0342 µM)	0.5 to 1 µg/mL	0.06 µg/mL (≈ 0.0684 µM)	0.5 to 1 µg/mL	0.5 to 1 µg/mL	6.3 µM	lower IC50 inhibition of CYP3A4 inhibition	–	–
CCC1OC(=O)C(C)C(=O)C(C)C(OC2OC(C)CC(N(C)C)C2O)C(C)(OCC=Cc2cnc3ccccc3c2)CC(C)C(=O)C(C)C2N(CC3CCN(C)C3)C(=O)OC12C [Compound 13N, (3aS,4R,7R,9R,10R,11R,13R,15R,15aR)-10-{[(2S,3R,4S,6R)-4-(dimethylamino)-3-hydroxy-6-methyloxan-2-yl]oxy}-4-ethyl-3a,7,9,11,13,15-hexamethyl-1-{[(3S)-1-methylpyrrolidin-3-yl]methyl}-11-{[(2E)-3-(quinolin-3-yl)prop-2-en-1-yl]oxy}-tetradecahydro-1H-oxacyclotetradeca[4,3-d][1,3]oxazole-2,6,8,14-tetrone]	0.03 µg/mL (≈ 0.0348 µM)	0.5 to 1 µg/mL	0.03 to 0.06 µg/mL	0.5 to 1 µg/mL	0.5 to 1 µg/mL	–	lower IC50 inhibition of CYP3A4 inhibition	7.7 µM	–
CC[C@H]1OC(=O)[C@H](C)[C@@H](O[C@H]2C[C@@](C)(OC)[C@@H](O)[C@H](C)O2)[C@H](C)[C@@H](O[C@@H]2O[C@H](C)C[C@H](N(C)C)[C@H]2O)[C@](C)(O)C[C@@H](C)C(=O)[C@H](C)[C@@H](O)[C@]1(C)O [erythromycin, reference compound]	0.03 to 0.06 µg/mL	64 µg/mL (≈ 87.2 µM)	–	8 to 16 µg/mL	8 to 32 µg/mL	–	–	–	0.03 to 0.06 µg/mL (≈ 0.0409 to 0.0818 µM)
(3aS,4R,7R,9R,10R,11R,13R,15R,15aR)-1-[2-(diethylamino)ethyl]-10{[(2S,3R,4S,6R)-4-(dimethylamino)-3-hydroxy-6-methyloxan-2-yl]oxy}-4-ethyl-3a,7,9,11,13,15-hexamethyl-11-{[(2E)-3-(quinolin-3-yl)prop-2-en-1-yl]oxy}-tetradecahydro-1H-oxacyclotetradeca[4,3-d][1,3]oxazole-2,6,8,14-tetrone [Compound 13A]	0.008 to 0.015 µg/mL	0.12 to 0.25 µg/mL	0.015 to 0.06 µg/mL	0.12 to 0.25 µg/mL	0.12 to 0.25 µg/mL	1.2 µM	lower IC50 inhibition of CYP3A4 inhibition	–	–
(3aS,4R,7R,9R,10R,11R,13R,15R,15aR)-1-[3-(azetidin-1-yl)propyl]-10-{[(2S,3R,4S,6R)-4-(dimethylamino)-3-hydroxy-6-methyloxan-2-yl]oxy}-4-ethyl-3a,7,9,11,13,15-hexamethyl-11-{[(2E)-3-(quinolin-3-yl)prop-2-en-1-yl]oxy}-tetradecahydro-1H-oxacyclotetradeca[4,3-d][1,3]oxazole-2,6,8,14-tetrone [Compound 13M]	0.015 to 0.03 µg/mL	0.25 to 0.5 µg/mL	0.03 to 0.06 µg/mL	0.5 to 1 µg/mL	0.25 to 0.5 µg/mL	–	lower IC50 inhibition of CYP3A4 inhibition	10.3 µM	–
(3aS,4R,7R,9R,10R,11R,13R,15R,15aR)-10-{[(2S,3R,4S,6R)-4-(dimethylamino)-3-hydroxy-6-methyloxan-2-yl]oxy}-1-[2-(dimethylamino)ethyl]-4-ethyl-3a,7,9,11,13,15-hexamethyl-11-{[(2E)-3-(quinolin-3-yl)prop-2-en-1-yl]oxy}-tetradecahydro-1H-oxacyclotetradeca[4,3-d][1,3]oxazole-2,6,8,14-tetrone [Compound 13F, reference compound]	0.0015 µg/mL	0.25 to 0.5 µg/mL	0.015 to 0.06 µg/mL	0.25 µg/mL	0.12 to 0.25 µg/mL	1.1 µM	–	–	–
